The structures appear in SMILES notation.

The conditions of data set [1]: cited from earlier work.
Data set [2] is described as follows: Roundtable sensory panel of at least four experienced individuals, aqueous test samples (Example 1). Format: in vivo. The arrangement: key to Spiky-Rounded: 0—like Reb M/N (spiky); 1—mostly spiky, some rounded; 2—mostly rounded, some spiky; 3—rounded; key to Sweet Linger / Tea/floral/green / Bitter / Typical Reb M/N Attributes (astringency, metallic, powdery, numbing, vapory): 0—none,; 1—trace/faint; 2—slight; 3—moderate; 4—definite; 5—strong; 6—extreme, typical Reb M/N; key to Mouthfeel: 0—water; 1—sucrosey; 2—syrupy. As to conditions: solution in reverse osmosis water. The procedure:
Solutions were prepared which contained either a steviol glycoside component alone, for use as a control sample, or a steviol glycoside component and sensory modifier in a 2:1 molar ratio, which also corresponds to a 2:1 weight ratio. Solutions were prepared by dissolving the steviol glycoside components and sensory modifiers into reverse osmosis water at the indicated concentrations and/or ratios.
Assays were carried out to characterize the sensory attributes of steviol glycoside compositions having various salt fractions of sensory modifier. Sensory attributes of the solutions were tested by a panel of at least four individuals that are experienced in tasting steviol glycoside compositions. The experienced panelists used a roundtable methodology to assess each sweetness attribute. To test each solution, the experienced panelists dispensed approximately 2 mL of each solution into their own mouths by transfer pipet, dispersed the solution by moving their tongues, and recorded a value for the particular sweetness attribute being tested. Between tasting solutions, the panelists were able to cleanse their palates with water. For each sweetness attribute, the panelists agreed on a descriptive scale with relative intensities assigned for each sweetness attribute and then recorded the values for each sweetness attribute against this.
A mixture of monocaffeoylquinic acid and dicaffeoylquinic acid was obtained from yerba mate to provide the sensory modifier in acid form. Separately from the steviol glycoside component, the mixture of monocaffeoylquinic acid and dicaffeoylquinic acid was adjusted with sodium hydroxide or potassium hydroxide to obtain sodium salts or potassium salts (each corresponding to 100% salt form). The resulting samples were freeze-dried to provide sensory modifier (SM) in ready-to-use, powder-form. A series of samples were prepared from the sensory modifier. For each sample, the final concentration of sensory modifiers was 470-500 ppm (wt/wt), including the contribution of salt mass. Steviol Glycoside Component Examples A and B were used alone as a control sample and also used as the starting point for the sensory modified samples.
For each sample, the flavor profile was compared to the steviol glycoside solution alone as well as to the sample with differing salt composition.

Data set [3] is described as follows: Perceived sweetness intensity (SEV, sucrose equivalent value) of aqueous test samples. Format: in vivo. As to conditions: sucrose equivalent value (SEV 1 = 1% sucrose solution); solution in reverse osmosis water. The source says:
In some aspects, minor steviol glycosides can also have specific sensory attributes related to sweetness intensity. Perceived sweetness intensity can be reported as SEV (sucrose equivalent value) with increasing sweetness intensity corresponding to higher SEV. A SEV of 1 corresponds to a 1% sucrose solution, a SEV of 2 corresponds to a 2% sucrose solution, and so on. While perception of sweetness intensity generally increases as the concentration of the minor steviol glycoside increases, the perceived sweetness intensity can reach a plateau despite increasing amounts of the minor steviol glycoside. […]
As a further example, sweetness intensity of the solutions can be tested by a panel of at least four individuals that are experienced in tasting steviol glycoside compositions. […] The panelists also can taste the standard range of 1%, 2%, 3%, 4%, 5%, 6%, 7%, 8%, 9%, 10%, 11%, 12%, 13%, and 14% sucrose solutions ad libitum between tasting test solutions to ensure an accurate match to their recorded SEV values with the standard sucrose solutions. […]
A mixture of monocaffeoylquinic acid and dicaffeoylquinic acid was obtained from yerba mate to provide the sensory modifier in acid form. […] The resulting samples were freeze-dried to provide sensory modifier (SM) in ready-to-use, powder-form. […]

`O=C(O)[C@]1(O)C[C@@H](O)[C@@H](O)[C@H](O)C1` [quinic acid, D-(−)-quinic acid]: the pKa entry in data set [1] is “around 3.46”.
Molecule `C=C1C[C@@]23CC[C@H]4[C@@](C)(CCC[C@@]4(C)C(=O)O[C@@H]4O[C@H](CO)[C@@H](O)[C@H](O[C@@H]5O[C@H](CO)[C@@H](O)[C@H](O)[C@H]5O)[C@H]4O[C@@H]4O[C@H](CO)[C@@H](O)[C@H](O)[C@H]4O)[C@@H]2CC[C@]1(O[C@@H]1O[C@H](CO)[C@@H](O)[C@H](O[C@@H]2O[C@H](CO)[C@@H](O)[C@H](O)[C@H]2O)[C@H]1O[C@@H]1O[C@H](CO)[C@@H](O)[C@H](O)[C@H]1O)C3` [Component Example A, rebaudioside M] had a Mouthfeel in data set [2] (panel score 0-2) of 0. For the same molecule, the Spiky-Rounded in data set [2] (panel score 0-3) is on record as 0. Also, the Tea/floral/green in data set [2] (panel score 0-5) was determined as 0. Further, in data set [2] (panel score 0-6), the Bitter turned out to be 5; the “Sweet Linger” value is given as 4; the “Typical Reb M/N Attributes (astringency, metallic, powdery, numbing, vapory)” value is given as 4. The SEV in data set [3] is 9.5.

The values above are taken from US12349710B2, “Sensory modifiers” (CARGILL, INCORPORATED, priority 2019, dated 2025).
